These results are taken from patent US20240368122A1, “JAK2 INHIBITORS AND METHODS OF USE THEREOF” (RELAY THERAPEUTICS, INC., priority 2021, published 2024).

Molecules are shown by their SMILES. Where two headings read alike, the source gives them in different places.

For assay [1], the target named is T1, JAK2 JH2 WT (V536-D812) [W659A, W777A, F794H solubilizing mutations] (Homo sapiens, UniProt O60674, F794H/W659A/W777A).
T1 construct: **JAK2 JH2 WT (V536-D812) [W659A, W777A, F794H solubilizing mutations]; C-thrombin-avi-His6; thrombin cleavage site (C); His6 (C); purchased Biortus
As to the kind of experiment: Surface Plasmon Resonance (SPR) binding assay, JAK2 JH2 domain. The gist of the method: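 Kinetics came from 1:1 fits of single-cycle runs at 20 °C: four 3-fold dilutions from 5 uM for JH1 or 500 nM for JH2, 60 s association, and 300 s or 1200 s dissociation respectively. Protein was freshly captured per compound in the presence of 10 uM stabilizer compound, with running buffer of pH 7.5 HEPES/NaCl/glycerol/DTT plus 2% DMSO.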

For assay [2], the system named is TF1 JAK2 V617F STAT3 reporter. As to the kind of experiment: Cellular TF1 STAT3 assay (luciferase reporter), JAK2 V617F. It counts as cell-based. The conditions noted are these: read-out: Cell PD-TF1 JAK2 V617F STAT3 (IC50). An outline of the steps: (§1)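 TF1 V617F JAK2 reporter cells, 10k/well; 10-pt 1:3 dose response from 10 mM 1000× DMSO stock; 18-20 h, 37 °C, 5% CO2; ONE-glo, 10 min RT; luminescence. Triplicate plates, DMSO vehicle.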

The test system of assay [3] is TF1 JAK2 V617F STAT5 reporter. Kind of assay: Cellular TF1 STAT5 assay (luciferase reporter), JAK2 V617F. Type of assay: cell-based. Particulars: read-out: Cell PD TF1 V617F STAT5 (IC50). An outline of the steps:
as §1
(In general: In a reporter assay the amount or activity of a reporter protein is the signal.)

In assay [4] the target is T2, JAK2 JH1 WT (T842-G1132) (Homo sapiens, UniProt O60674).
T2 construct: *JAK2 JH1 WT (T842-G1132) N-His60-avi-TEV; His6 (N); TEV cleavage site (N); purchased Biortus
As to the kind of experiment: Surface Plasmon Resonance (SPR) binding assay, JAK2 JH1 domain. On the procedure: Selected compounds of the present disclosure were tested in a Surface Plasmon Resonance (SPR) Assay to measure their binding kinetics and affinity for proteins of interest.
Prepare buffer: 50 mM HEPES pH 7.5, 150 mM NaCl, 0.05% (v/v) Tween, and 10% (v/v) glycerol were combined and pH was adjusted to 7.5, then filtered. 5 mM DTT, was added, and buffer without DMSO was reserved for compound resuspension. 2% (v/v) DMSO was added for assay buffer, and separately 1% DMSO was used to make buffer for resuspending compounds.
Prepare compounds: Using a Bravo liquid handler, 99 μL of 1% (v/v) DMSO assay buffer was added to 1 μL compounds in DMSO.
Run 8K Method: Biotin CAPture (CAP) chip surface was regenerated prior to run by: Inserting CAP chip into Biacore 8K, prime machine with assay buffer with 2% (v/v) DMSO; Setting instrument temperature to 20° C.; Conditioning surface with NaOH/GdnHCl reagents from CAP chip kit (60 seconds, 10 μL/min); and Capturing oligo-Streptavidin (SA) reagent from CAP kit (600 seconds, 1 μL/min), expected capture ˜2500 RU. JAK2 JH1 or JH2 protein was immobilized by preparing a sample of 0.5 uM JH1 or 0.4 uM JH2 protein diluted in assay buffer without DMSO and supplemented with 10 uM of a selected compound of the invention as a stabilizer (370 seconds, 5 uL/min), expected capture ˜1000 RU. Remaining biotin sites on SA were blocked with 1 uM biotin (30 seconds, 20 uL/min), then equilibrated for 1800 seconds at 100 uL/min. Compounds being assayed were run in single cycle kinetics: 4 doses with a top concentration of 5 uM (JH1) or 500 nM (JH2), dilution factor of 3, at 20° C., for a contact time of 60 seconds, and a dissociation time of 300 seconds (JH1) or 1200 seconds (JH2), at a flow rate of 30 uL/min. The surface was completely regenerated after each compound is run, and JH1 or JH2 protein was immobilized fresh prior to each new compound. Data were fitted kinetically with 1:1 binding model using Biacore Insight Evaluation Software.

[5] abbreviates: Homo sapiens, TF-1, TF1 cells, JAK2 V617F.

T2 sequence (O60674 842-1132): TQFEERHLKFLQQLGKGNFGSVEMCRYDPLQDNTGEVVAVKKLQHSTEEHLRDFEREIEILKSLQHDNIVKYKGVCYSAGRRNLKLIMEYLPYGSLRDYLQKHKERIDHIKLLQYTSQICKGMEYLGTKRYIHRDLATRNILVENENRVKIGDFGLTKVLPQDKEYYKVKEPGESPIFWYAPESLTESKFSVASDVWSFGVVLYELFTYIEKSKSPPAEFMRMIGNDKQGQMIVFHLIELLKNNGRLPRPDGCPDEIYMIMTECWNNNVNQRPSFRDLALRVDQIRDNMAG
T1 sequence (O60674 536-812 W659A/W777A/F794H): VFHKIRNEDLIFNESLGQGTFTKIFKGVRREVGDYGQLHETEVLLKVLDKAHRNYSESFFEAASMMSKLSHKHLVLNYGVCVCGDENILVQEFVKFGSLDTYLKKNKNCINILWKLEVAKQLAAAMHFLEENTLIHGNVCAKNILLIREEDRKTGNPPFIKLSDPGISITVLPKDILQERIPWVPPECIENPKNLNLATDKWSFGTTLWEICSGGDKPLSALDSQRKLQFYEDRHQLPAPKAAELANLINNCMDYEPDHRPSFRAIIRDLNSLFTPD

For the molecule `CNC(=O)c1nnc(NC(=O)C2CC2)cc1Nc1cccc(-c2cn(C3CN(Cc4cccc(C#N)n4)C3)nc2COC)c1OC` [Compound 328], the Kd in assay [1] is 0.01 to 10 nM; in assay [4], 500 to 5000 nM. Besides, the 50% inhibitory concentration (IC50) in assay [2] (setting [5]) and in assay [3] (setting [5]) was 50 to 500 nM each time.

As for `CNC(=O)c1nnc(NC(=O)C2CC2)cc1Nc1cccc(-c2cn(C3CN(Cc4cccc(C)n4)C3)nn2)c1OC` [Compound 151], the Kd is 0.01 to 10 nM in assay [1] (SPR, JAK2 JH2 domain) and 500 to 5000 nM in assay [4] (SPR, JAK2 JH1 domain). Moreover, the IC50 in assay [2] (TF1 JAK2 V617F) and in assay [3] (TF1 JAK2 V617F) was 50 to 500 nM each time.

Take `CNC(=O)c1nnc(NC(=O)C2CC2)cc1Nc1cccc(-c2cnn(C3CN(Cc4ccn(C)n4)C3)c2)c1OC` [Compound 41]: the Kd in assay [1] (SPR, JAK2 JH2 domain) lay within 0.01 to 10 nM; in assay [4] (SPR, JAK2 JH1 domain), 500 to 5000 nM. Also, the IC50 in assay [2] (TF1 JAK2 V617F) and in assay [3] (TF1 JAK2 V617F) was 50 to 500 nM throughout.

For the molecule `CNC(=O)c1nnc(NC(=O)C2CC2)cc1Nc1cccc(-c2ccc(C(=O)N(C)Cc3cc(C#N)ccn3)nc2)c1OC` [Compound 18], the Kd in assay [1] (SPR, JAK2 JH2 domain) fell in the range of 0.01 to 10 nM; in assay [4] (SPR, JAK2 JH1 domain) it was 5000 to 100000 nM. In addition, the IC50 in assay [2] (TF1 JAK2 V617F) and in assay [3] (TF1 JAK2 V617F) was 50 to 500 nM in each case.

For orientation: Kd means the equilibrium constant for the complex coming apart. A low value points to higher affinity. For orientation: IC50 means the concentration that inhibits the measured activity by half.
